Consider five molecules from patent publication US20120165319A1, “INHIBITORS OF INTERLEUKIN-1 BETA CONVERTING ENZYME” (VERTEX PHARMACEUTICALS INCORPORATED, priority 1995, published 2012).

A short description of data set [1]: In vivo bioavailability determination (oral, rat). The note with it: for blood levels of drug when dosed orally: oral 10-100 mg/kg; for blood levels of drug when dosed orally / drug availability when dosed orally: result in words; for Drug Availability / Cmax / drug availability when dosed orally: oral; for Cmax: aldehyde (drug) concentration. As to the method: In Vivo Bioavailability Determination
The drugs (10-100 mg/kg) were dosed orally to rats (10 mL/kg) in ethanol/PEG/water, β-cyclodextrin, labrosol/water or cremophor/water. Blood samples were drawn from the carotid artery at 0.25, 0.50, 1, 1.5, 2, 3, 4, 6, and 8 hours after dosing, centrifuged to plasma and stored at −70° C. until analysis. Aldehyde concentrations were determined using an enzymatic assay. Pharmacokinetic analysis of data was performed by non-linear regression using RStrip (MicroMath Software, UT).

For data set [2], the system named is IL-1β production, LPS-challenged mice. In words: In vivo acute assay for efficacy as anti-inflammatory agent: LPS-induced IL-1β production in mice. The note with it: for inhibition of IL-1β production after oral administration, dosed at time of LPS challenge: LPS-challenged mice, vehicles ethanol/PEG/water, β-cyclodextrin, labrosol/water or cremophor/water, result in words; for Inhibition (%) of IL-1β production in LPS-challenged mice: oral, dosed at time of LPS challenge. On the set-up: species or system mouse. The procedure, abridged: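 Serum IL-1β was measured by ELISA 7 h after an IP dose of 20 mg/kg LPS in CD1 mice, n=6 per group. Compounds in olive oil/DMSO/ethanol 90:5:5 were injected IP 1 h post-LPS (some analogs were dosed at challenge), and separate groups received 50 mg/kg by oral gavage.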

In data set [3] the test system is male DBA/1J mice, type II collagen-induced arthritis. Kind of data set: Type II collagen-induced arthritis. The format is in vivo, mouse. The note with it: oral gavage twice a day 10, 25 and 50 mg/kg (214e: 50 mg/kg once a day), Arthritis Severity Score, result in words. As for the experimental part:
Type II Collagen-Induced Arthritis
Type II collagen-induced arthritis was established in male DBA/1J mice at described Wooley and Geiger (Wooley, P. H., Methods in Enzymology, 162, pp. 361-373 (1988) and Geiger, T., Clinical and Experimental Rheumatology, 11, pp. 515-522 (1993)). Chick sternum Type II collagen ([…] in 10 mM acetic acid) was emulsified with an equal volume of Freund's complete adjuvant (FCA) by repeated passages (400) between two 10 ml glass syringes with a gauge 16 double-hub needle. Mice were immunized by intradermal injection (50 μl; […], CII per mouse) of collagen emulsion 21 days later at the contra-lateral side of the tail base. Drugs were administered twice a day (10, 25 and 50 mg/kg) by oral gavage approximately 7 h apart. Vehicles used included ethanol/PEG/water, β-cyclodextrin, labrosol/water or cremophor/water. Drug treatments were initiated within 2 h of the CII booster immunization. Inflammation was scored on a 1 to 4 scale of increasing severity on the two front paws and the scores are added to give the final score.

In data set [4] the test system is IL-1β levels in the peritoneal fluid, carrageenan-challenged mice. In words: Mouse carrageenan peritoneal inflammation. The format is in vivo. The note with it: for Inhibition (%) of IL-1β production in carrageenan-challenged mice: oral. As to the method:
Mouse Carrageenan Peritoneal Inflammation
Inflammation was induced in mice with an intraperitoneal (IP) injection of 10 mg carrageenan in 0.5 ml of saline (Griswold et al., Inflammation, 13, pp. 727-739 (1989)). Drugs are administered by oral gavage in ethanol/PEG/water, β-cyclodextrin, labrosol/water or cremophor/water vehicle. The mice are sacrificed at 4 hours post carrageenan administration, then injected IP with 2 ml of saline containing 5 U/ml heparin. After gentle massage of the peritoneum, a small incision is made, the contents collected and volume recorded. Samples are kept on ice until centrifuged (130×g, 8 mins at 4° C.) to remove cellular material, and the resultant supernatant stored at −20° C. IL-1β levels in the peritoneal fluid are determined by ELISA.

Another data set relates to IFN-γ, human PBMC. Kind of data set: Human PBMC assay (Example 27): IFN-γ production. It is filed as cell-based. The following applies: LPS-stimulated human PBMCs (FIG. 5); read-out: IC50, decrease of IFN-γ production. As to the method: (§1) Since the processing and secretion of biologically active IGIF is mediated by ICE, we compared the activity of a reversible ICE inhibitor (Ac-YVAD-CHO) on IL-1β and IFN-γ production in a peripheral blood mononuclear cell (PBMC) assay (Examples 27).
(§2) Human buffy coat cells were obtained from blood donors and peripheral blood mononuclear cells (PBMC) were isolated by centrifugation in LeukoPrep tubes (Becton-Dickinson, Lincoln Park, N.J.). PBMC were added (3×10^6/well) to 24 well Corning tissue culture plates and after 1 hr incubation at 37° C., non-adherent cells were removed by gently washing. Adherent mononuclear cells were stimulated with LPS (1 μg/ml) with or without ICE inhibitor in 2 ml RPMI-1640-10% FBS. After 16-18 hr incubation at 37° C., IGIF and IFN-γ were quantitated in culture supernatants by ELISA.

A further data set has as its system IL-1β, human PBMC. Kind of data set: Human PBMC assay (Example 27): IL-1β production. It is filed as cell-based. The note with it: LPS-stimulated human PBMCs (FIG. 5); read-out: IC50, decrease of IL-1β production. As for the experimental part:
as §1, §2

The target of a further data set is T1, ICE (Homo sapiens, UniProt P29466).
T1 sequence (P29466 120-297 limits assumed): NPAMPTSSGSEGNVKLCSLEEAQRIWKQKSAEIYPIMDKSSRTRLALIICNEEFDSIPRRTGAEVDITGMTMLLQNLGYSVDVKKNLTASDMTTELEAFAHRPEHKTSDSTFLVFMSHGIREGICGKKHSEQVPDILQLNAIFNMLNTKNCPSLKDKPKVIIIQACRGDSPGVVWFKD
T1 sequence (P29466 317-404 limits assumed): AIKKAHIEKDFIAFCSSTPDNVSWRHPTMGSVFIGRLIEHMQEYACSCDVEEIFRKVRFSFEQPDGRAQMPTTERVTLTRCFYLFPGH
Kind of data set: Enzyme assay with UV-visible substrate (visible ICE assay, Succinyl-Tyr-Val-Ala-Asp-pNitroanilide). The format is biochemical. The following applies: Table 5. The procedure, abridged:
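ICE preincubated with inhibitor in DMSO for 15 min at room temperature, then Suc-Tyr-Val-Ala-Asp-pNA added. pNA release read at 405-603 nm for 20 min at 37 °C, rate from linear fit in mOD/min. Ki and inhibition mode from fits of rates at varying inhibitor concentrations to standard kinetic equations.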

Data set [5] is described as follows: Measurement of blood levels of prodrugs of 214e after p.o. dosing in mice. The format is in vivo, mouse. The following applies: p.o. 50 mg/kg in 0.5% carboxymethylcellulose, blood at 1 and 7 hours. As for the experimental part: Measurement of Blood Levels of Prodrugs of 214e
Mice were administered a p.o. dose of compounds 302 and 304a (50 mg/kg) prepared in 0.5% carboxymethylcellulose. Blood samples were collected at 1 and 7 hours after dosing. Serum was extracted by precipitation with an equal volume of acetonitrile containing 2% formic acid followed by centrifugation. The supernatant was analyzed by liquid chromatography-mass spectrometry (ESI-MS) with a detection level of 0.03 to 3 μg/ml.

Data set [6] deals with IL-1β, human peripheral blood mononuclear cells (PBMC). In words: PBMC cell assay: IL-1β assay with human PBMC or enriched adherent mononuclear cells, LPS-stimulated. It is filed as cell-based. The note with it: Homo sapiens, PBMC, * = values obtained upon reassay. The procedure, abridged: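 Mature IL-1β is measured by ELISA in supernatants after 16–18 hr at 37 °C, 5% CO2, with LPS (5 ng/ml final) and test compound (0.1% DMSO final). Cells are human PBMC (6×10^6 cells/ml) or plate-adherent mononuclear cells (2.5−3.0×10^5 per well), and the 5–6 compound concentrations span the ICE Ki.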

The mark [7] stands for this setting: LPS challenged mice, PO, 50 mg/kg, * = values obtained in subsequent assays (Table 4).

“Also recorded” adds a separate entry of the source.

For the molecule `CCO[C@@H]1OC(=O)C[C@@H]1NC(=O)[C@@H]1CCCN2C(=O)CC[C@H](NC(=O)c3nccc4ccccc34)C(=O)N12` [Compound 412f, [1S,9S(2R,3S)]N-(2-Ethoxy-5-oxotetrahydrofuran-3-yl)-6,10-dioxo-9-(isoquinolin-1-oylamino)-1,2,3,4,7,8,9,10-octahydro-6-H-pyridazino[1,2-a][1,2]diazepine-1-carboxamide], the “blood levels of drug when dosed orally” value in data set [1] was “significant blood levels of drug”. The “Drug Availability” value in [1] (dose 25 mg/kg) is listed as 32%. Further, the Cmax (commonly the peak of the concentration-time curve) in data set [1] (dose 25 mg/kg) is 2400 ng/mL. The “drug availability when dosed orally” value in data set [1] was “good drug availability”. For the same molecule, the “inhibition of IL-1β production after oral administration, dosed at time of LPS challenge” value (“inhibition … of LPS challenge” for short) in data set [2] is given as “inhibit IL-1β production”. In addition, the “Inhibition (%) of IL-1β production in LPS-challenged mice” value in data set [2] (10 mg/kg dose) is on record as 17%; in data set [2] (25 mg/kg dose) it was 25%; in data set [2] (50 mg/kg dose), 32%. In addition, the “inhibition of inflammation / progression of type II collagen-induced arthritis” value in [3] was “inhibit inflammation; also recorded: blocks the progression”. In data set [4] (oral administration, 214e at 50 mg/kg, result in words), the “inhibition of IL-1β production in carrageenan-challenged mice” value is recorded as “inhibits IL-1β production”. The “Inhibition (%) of IL-1β production in carrageenan-challenged mice” value in data set [4] (dose 1 mg/kg) came out at 30%; in data set [4] (dose 10 mg/kg), 54%; in [4] (dose 25 mg/kg), 49%; in data set [4] (dose 50 mg/kg), 73%; in [4] (dose 100 mg/kg), 75%.

As to `O=C1C[C@H](NC(=O)[C@@H]2CCCN3C(=O)CC[C@H](NC(=O)c4nccc5ccccc45)C(=O)N23)[C@H](OC2CCCC2)O1` [Compound 412d, [1S,9S(2R,3S)]N-(2-Cyclopentoxy-5-oxotetrahydrofuran-3-yl)-6,10-dioxo-9-(isoquinolin-1-oylamino)-1,2,3,4,7,8,9,10-octahydro-6-H-pyridazino[1,2-a][1,2]diazepine-1-carboxamide], the “blood levels of drug when dosed orally” value in data set [1] is recorded as “significant blood levels of drug”. In addition, the “Drug Availability” value in [1] (dose 25 mg/kg) worked out at 35%. The molecule further had a Cmax in [1] (dose 25 mg/kg) of 2600 ng/mL. In addition, the “drug availability when dosed orally” value in [1] was “good drug availability”. Besides, in [2], the “inhibition … of LPS challenge” value was “inhibit IL-1β production”. The “inhibition of inflammation / progression of type II collagen-induced arthritis” value in [3] is given as “inhibit inflammation; also recorded: blocks the progression”. For the same molecule, the “Inhibition (%) of IL-1β production in carrageenan-challenged mice” value is 0% in [4] (dose 1 mg/kg); 32% in data set [4] (dose 10 mg/kg); 31% in data set [4] (dose 25 mg/kg); 36% in [4] (dose 50 mg/kg); 53% in data set [4] (dose 100 mg/kg).

In the case of “AcYVAD-CHO [Ac-YVAD-CHO, reference compound]”, the IC50 (in general, the point on the concentration scale where inhibition reaches its midpoint) in the data set with IFN-γ, human PBMC was 2.5 µM; in the data set with IL-1β, human PBMC, 2.5 µM.

Consider `COC1OC(=O)C[C@@H]1NC(=O)[C@@H]1CCCN2C(=O)CC[C@H](NC(=O)c3ccccc3)C(=O)N12` (stereo partly drawn) [Compound 304a, [1S,9S (2RS,3S)]9-Benzoylamino-6,10-dioxo-1,2,3,4,7,8,9,10-octahydro-N-(2-methoxy-5-oxo-tetrahydro-furan-3-yl)-6H-pyridazino[1,2-a][1,2]diazapine-1-carboxamide], for which, in [2] (setting [7]), the “Inhibition of IL-1β Production, compound administered 0 hr relative to LPS challenge” value was found to be 68%; the “Inhibition of IL-1β Production, compound administered +1 hr relative to LPS challenge” value came out at 37%; the “Inhibition of IL-1β Production, compound administered −1 hr relative to LPS challenge” value worked out at 33%; the “Inhibition of IL-1β Production, compound administered −2 hr relative to LPS challenge” value was 30%. Further, affinity on ICE was put at a Ki of 0.2 µM. The “blood levels when administered orally (in words)” value in [5] is given as “detectable blood levels”. In data set [6], this molecule had an IC50 of 1.4 µM.

Consider `O=C(CN1C(=O)[C@@H](NC(=O)c2nccc3ccccc23)CN(C(=O)CO)c2ccccc21)N[C@H]1CC(=O)OC1OCc1ccccc1` (mixture of isomers) [Compound 696a, (3S)-2-Oxo-3-(isoquinolin-1-oyl)amino-5-hydroxyacetyl-N-[(2RS,3S)-benzyloxy-5-oxo-tetrahydrofuran-3-yl]-2,3,4,5-tetrahydro-1H-1,5-benzodiazepine-1-acetamide], for which, in [1], the “blood levels of drug when dosed orally” value is listed as “significant blood levels of drug”. In addition, in data set [1] (dose 50 mg/kg), the “Drug Availability” value was 10%. This molecule showed a Cmax in data set [1] (dose 50 mg/kg) of 1200 ng/mL. Also, the “drug availability when dosed orally” value in data set [1] is recorded as “good drug availability”. The “inhibition … of LPS challenge” value in data set [2] is listed as “inhibit IL-1β production”. Moreover, the entries for the “Inhibition (%) of IL-1β production in LPS-challenged mice” value in [2] (10 mg/kg dose), in data set [2] (25 mg/kg dose) and in data set [2] (50 mg/kg dose) were 0%, 45% and 52%, respectively. Further, the “inhibition of inflammation / progression of type II collagen-induced arthritis” value in data set [3] was “inhibit inflammation; also recorded: blocks the progression”.
